Data published in PubChem BioAssay AID1963451 (Molecular Pharmacology Branch, DTP, NCI, 2024).
pIC50: −log10 of the molar value.

Test system: 521955-158-R6-J3-PDC complex spheroid growth, % test/control
Assay: Anticancer human tumor 521955-158-R6-J3-PDC patient-derived pancreatic carcinoma cell line growth inhibition [Asc]
Conditions: for pIC50: curve of first compound; for viability, T/C: stronger effect = lower value
Description: Multicellular complex tumor spheroid response to apoptosis pathway targeting inhibitors Alrizomadlin, Pelcitoclax, and Dasminapant in combination with a variety of drugs and investigational agents in selected tumor cell lines
The MDM2 inhibitor alrizomadlin, the Bcl-2/Bcl-xL inhibitor pelcitoclax, and the IAPs inhibitor dasminapant were evaluated both individually and in combination with standard of care and investigational anticancer small molecules within a complex spheroid model of solid tumors. . Complex spheroids include a stromal component modeled by human endothelial cells (HUVEC) and fibroblasts modeled by human mesenchymal stem cells (MSCs). The concentration ranges selected for each drug and investigational agent were based upon clinically achievable concentrations if the clinical Cmax of the agent was known.
Compounds. The drugs and investigational agents: alrizomadlin (APG-115; NSC831270), pelcitoclax (APG-1252; NSC835773), dasminapant (APG-1387;NSC834197), TAK-243 (NSC785004), copanlisib (NSC809693), olaparib (NSC753686), talazoparib (NSC767125), cobimetinib (NSC 768068), eltanexor (KPT-8602, NSC 794443), abemaciclib (NSC 768073), sotorasib (NSC818433), adagrasib (NSC 831453), MRTX-1133 (NSC 836407), Iadademestat (ORY1001, NSC 806812), and RMC-4630 (NSC839698), were obtained from the NCI Developmental Therapeutics Program Chemical Repository. The FDA-approved anticancer drug set is available from the Developmental Therapeutics Program at https://dtp.cancer.gov/organization/dscb/obtaining/available plates.htm. […] The stock solutions were prepared in dimethyl sulfoxide (DMSO, Sigma-Aldrich, St. Louis, MO, cat. D2650) at 800-fold the tested concentration and stored at -70 degrees C prior to their use. All drugs and investigational agents were tested over a range starting from a high concentration at or near the clinical Cmax and decreasing in half-log increments. If the clinical Cmax for an agent had not been determined, the highest concentration tested was 10 microM.
The patient-derived cancer (PDC) cell lines include five colon adenocarcinomas: 186277-243-T-J2-PDC, 616215-338-R-J1-PDC, 439559-082-T-J2-PDC, 463943-066-T-J2-PDC, and 519858-162-T-J1-PDC; three pancreatic carcinomas: 323965-272-R-J2-PDC, 521955-158-R6-J3-PDC, and 521955-158-R2-J5-PDC; two uterine sarcomas: 327498-152-R-J2-PDC and 993429-296-R-J1-PDC; two rhabdomyosarcomas: 755483-174-R-J1-PDC and 772245-204-R-J1-PDC; two soft tissue sarcomas: 126254-015-R-J1-PDC and 494315-158-R-J1-PDC; two malignant fibrous histiocytomas: 317291-083-R-J1-PDC and 596521-263-R-J1-PDC; two breast carcinomas: 171881-019-R-J1-PDC and 885512-296-R-J2-PDC; and one ovarian carcinoma: 6556581-035-R-J-PDC were obtained from the NCI PDMR, (https://pdmr.cancer.gov). The established cell lines HSSY-2 synovial sarcoma (RRID:CVCL 8719), SYO-1 synovial sarcoma (RRID:CVCL_7146), MPNST malignant peripheral neural sheath tumor were obtained from the Sloan Kettering Institute. The following established cell lines were purchased from the American Type Culture Collection (ATCC, Manassas, VA), Sor the received from the NCI repository:, PANC-1 pancreatic carcinoma (CRL-1469, RRID:CVCL_0480), OVCAR-5 ovarian carcinoma (RRID:CVCL_1628), OVCAR-8 ovarian carcinoma (RRID:CVCL_1629), , MCF-7 breast carcinoma (CRL-12584, RRID:CVCL_0031), MDA-MB-231 breast carcinoma (CRL-12532, RRID:CVCL_0062), NCI-H1876 small cell lung carcinoma (CRL-5902, RRID:CVCL_1503), NCI-H510A small cell lung carcinoma (HTB-184, RRID:CVCL_1565), NCI-H1417 (CRL-5869, RRID:CVCL_1469), and NCI-H196 small cell lung carcinoma (CRL-5823, RRID:CVCL_1509). Dr. Peter Houghton (Greehey Children's Cancer Research Institute, University of Texas Health Science Center, San Antonio, TX) provided Rh-18 rhabdomyosarcoma (RRID:CVCL_1659). Pooled donor human umbilical vein endothelial cells (HUVEC, Lonza, cat. CC-2519) and human mesenchymal stem cells (hMSC, Lonza, cat. PT-2501) were purchased from Lonza (Walkersville, MD).
Cell Culture. […]
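Also: spheroids exposed to compounds for 7 days.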
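For viability, T/C in this document: 100% = DMSO vehicle control wells.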

pIC50 (second compound 0.00949 µM): < 7.00 | pIC50 (second compound 0.03 µM): < 7.00 | pIC50 (second compound 0.0949 µM): < 7.00 | pIC50 (second compound 0.3 µM): < 7.00 | pIC50 (second compound 0.949 µM): < 7.00 | pIC50 (second compound 3 µM): < 7.00
Structure (SMILES): NC1CCC(NC2CC2c2ccccc2)CC1 (configuration not stated) + CCN1C(C(=O)NC23CCC(C(=O)O)(CC2)CC3)C(c2cccc(Cl)c2F)C2(C(=O)Nc3cc(Cl)ccc32)C12CCCCC2
viability, T/C (second compound 0.00949 µM, first compound 0.000316 µM): 112% | viability, T/C (second compound 0.00949 µM, first compound 0.001 µM): 104% | viability, T/C (second compound 0.00949 µM, first compound 0.00316 µM): 90.5% | viability, T/C (second compound 0.00949 µM, first compound 0.01 µM): 105% | viability, T/C (second compound 0.00949 µM, first compound 0.0316 µM): 85.3% | viability, T/C (second compound 0.00949 µM, first compound 0.1 µM): 108% | viability, T/C (second compound 0.03 µM, first compound 0.000316 µM): 111% | viability, T/C (second compound 0.03 µM, first compound 0.001 µM): 106% | viability, T/C (second compound 0.03 µM, first compound 0.00316 µM): 100% | viability, T/C (second compound 0.03 µM, first compound 0.01 µM): 99.6% | viability, T/C (second compound 0.03 µM, first compound 0.0316 µM): 105% | viability, T/C (second compound 0.03 µM, first compound 0.1 µM): 84.7% | viability, T/C (second compound 0.0949 µM, first compound 0.000316 µM): 108% | viability, T/C (second compound 0.0949 µM, first compound 0.001 µM): 118% | viability, T/C (second compound 0.0949 µM, first compound 0.00316 µM): 120% | viability, T/C (second compound 0.0949 µM, first compound 0.01 µM): 127% | viability, T/C (second compound 0.0949 µM, first compound 0.0316 µM): 99.6% | viability, T/C (second compound 0.0949 µM, first compound 0.1 µM): 99.9% | viability, T/C (second compound 0.3 µM, first compound 0.000316 µM): 94.6% | viability, T/C (second compound 0.3 µM, first compound 0.001 µM): 108% | viability, T/C (second compound 0.3 µM, first compound 0.00316 µM): 111% | viability, T/C (second compound 0.3 µM, first compound 0.01 µM): 101% | viability, T/C (second compound 0.3 µM, first compound 0.0316 µM): 110% | viability, T/C (second compound 0.3 µM, first compound 0.1 µM): 102% | viability, T/C (second compound 0.949 µM, first compound 0.000316 µM): 101% | viability, T/C (second compound 0.949 µM, first compound 0.001 µM): 125% | viability, T/C (second compound 0.949 µM, first compound 0.00316 µM): 114% | viability, T/C (second compound 0.949 µM, first compound 0.01 µM): 105% | viability, T/C (second compound 0.949 µM, first compound 0.0316 µM): 113% | viability, T/C (second compound 0.949 µM, first compound 0.1 µM): 96% | viability, T/C (second compound 3 µM, first compound 0.000316 µM): 113% | viability, T/C (second compound 3 µM, first compound 0.001 µM): 109% | viability, T/C (second compound 3 µM, first compound 0.00316 µM): 128% | viability, T/C (second compound 3 µM, first compound 0.01 µM): 104% | viability, T/C (second compound 3 µM, first compound 0.0316 µM): 111% | viability, T/C (second compound 3 µM, first compound 0.1 µM): 88.7%
